Entries after “also recorded” stand apart in the source; their conditions may differ.
How the values were obtained:
A2780, M248, MES-SA, MX2 = assay: chromatin folding by PWS microscopy in cell line models; format: cell-based; conditions: for chromatin folding (structural alterations): FIG. 5A, five cell line models
Excerpt: FIG. 5A is a graph showing structural alterations due to taxol treatment (Paclitaxel or Docetaxel) in contrast to digoxin for five cell line models (A2780, M248, MES-SA, MX2). Chemotherapeutic intervention increases while CPT agent (digoxin) decreases chromatin folding. Error bars: S.E. of 5 different cell lines. FIGS. 5B-5C are diagrams showing intercellular (FIG. 5B) and intra-network (FIG. 5C) transcriptional heterogeneity increases in cells treated with chemotherapy and decreases in cells treated with CPTs for critical biological processes: (1) cell cycle, (2) apoptosis, (3) proliferation, (4) transcription, (5) signaling, (6) differentiation, (7) glycolysis, (8) translation, (9) ion transport, (10) metabolism, (11) oxidation/reduction, (12) stress response, and (13) nucleosome assembly. Circle size: the number of genes within a network/process. Color: % change in transcription heterogeneity compared to controls. […] Digoxin reduces chromatin heterogeneity. Arrow: nuclei.
Chromatin is a complex arrangement of DNA wrapped around structural and regulatory proteins that control the expression of genes directly involved in cellular function and phenotype. Local physicochemical changes broadly affect chromatin folding and alter gene expression patterns across the genome. In a non-limiting example, decoding the chromatin folding code and understanding how different agents affect folding dynamics at the nanoscale can be helpful to develop new diagnostic tools. The resolution of optical microscopy is limited by diffraction to >200 nm. Recently, a major breakthrough has been made in the emergence of super-resolution fluorescence microscopy that enabled development of a suite of label-free nanoscale imaging technologies including Partial Wave Spectroscopic (PWS) Microscopy (see, for example, FIG. 4). The main principle of PWS is a previously overlooked phenomenon that while sub-diffractional structures are not resolvable, they are still detectable through the analysis of interference of elastically scattered light. PWS can measure the statistics of macromolecular density distribution within live or fixed cells with sensitivity in the 20-200 nm length scales, which is ideally suited for the characterization of chromatin topology. It was by using PWS (and corroborated by electron microscopy) that heterogenization of chromatin folding was discovered as one of the earliest events in carcinogenesis across multiple cancer types. Consequently, PWS was turned into a robust diagnostics technology (nanocytology) and is now in clinical trials for early screening or prognostication of lung, colon, and prostate cancers.

MCF10A/NLS-DAO cells = assay: Western blot of EMT markers in MCF10A/NLS-DAO cells; format: cell-based; conditions: D-Ala 10 nM, activation of nuclear ROS
Protocol: FIG. 1B is a graph of experimental data showing the quantification of the relative levels of nuclear ROS shown as the ratio of fluorescence between the oxidized and reduced forms. FIG. 1C is a Western blot analysis showing increased EMT markers after activation of nuclear ROS with D-Ala (10 nM). FIG. 1D is a graph of experimental data showing proliferation curves comparing naïve (MCF10A) and D-Ala (10 nM) exposed MCF10A/NLS-DAO cells. Results are averages of at least 5 biologic replicates with (*) representing p<0.05.
Nuclear ROS are sufficient and required to activate EMT and metastasis of breast cancer cells. ROS levels were measured in the nuclei of different breast cancer cell lines displaying vastly different tumorigenicity and metastatic potential using novel NLS-Orp1roGFP2 biosensors. […] Also, transformation of MCF10A by v-Src promoted a marked increase in nuclear ROS levels (FIGS. 1A & B). […] To directly link nuclear ROS with aggressive cancer behavior, a nucleus-targeted system (NLS-D-amino acid oxidase, NLS-DAO) was engineered that allows to generate ROS21 directly in the nucleus and expressed it into MCF10A cells to recreate, using a non-transformed cell background, this distinctive feature of metastatic breast cancer cell lines. […]

BT20 NLS Orp roGFP cells = assay: nuclear ROS by NLS-Orp1roGFP2 biosensor in BT20 cells; format: cell-based, human; conditions: BT20, varying concentrations of DNP, 24 hours
Protocol: (§1) FIGS. 3A-3C show how DNP suppresses nuclear ROS in basal BT breast cancer cell lines.
(§2) Nuclear ROS are sufficient and required to activate EMT and metastasis of breast cancer cells. ROS levels were measured in the nuclei of different breast cancer cell lines displaying vastly different tumorigenicity and metastatic potential using novel NLS-Orp1roGFP2 biosensors. […] Also, transformation of MCF10A by v-Src promoted a marked increase in nuclear ROS levels (FIGS. 1A & B). […] To directly link nuclear ROS with aggressive cancer behavior, a nucleus-targeted system (NLS-D-amino acid oxidase, NLS-DAO) was engineered that allows to generate ROS21 directly in the nucleus and expressed it into MCF10A cells to recreate, using a non-transformed cell background, this distinctive feature of metastatic breast cancer cell lines. […] Next, it was tested whether nuclear ROS contributed to treatment failure by promoting resistance to first line chemotherapeutic drugs, i.e. doxorubicin. It was also tested whether removing suppressing ROS specifically in the nucleus restored sensitivity to doxorubicin. The strategy of removing ROS from the nucleus is novel, targets a feature that seems unique to cancer cells and preserves redox signaling that happen in large part in the cytosol22. […]

[1] = system: BT474 NLS Orp roGFP cells; assay: nuclear ROS by NLS-Orp1roGFP2 biosensor in BT474 cells; format: cell-based, human; conditions: BT474, varying concentrations of DNP, 24 hours
Protocol: as §1, §2

28-day toxicity studies = format: in vivo; conditions: low doses
Excerpt: (§3) In one embodiment, the compositions and methods of the disclosure relate to targeting oxidative stress upstream at the mitochondria that may be causative for many disorders, including, but not limited to, cancer, pain, and/or pain related conditions. There have been a variety of attempts to lower cellular stress, such as administering anti-oxidants, however these drugs have limited tissue penetration into the brain and lower ROSs after they have been formed. […] While not being bound to theory, it is postulated that DNP modulates the mitochondrial membrane potential having a significant impact at preventing ROS formation in isolated mitochondria and in the treated wildtype mice. DNP treatment 3-hours post-ischemia reduced cerebral infarct volume 40% by protecting the penumbra or “threaten tissue” and could provide similar benefits after a blast to protect inner hair cells from eminent cell death. DNP comes with the benefits of known risks as it was used 80-years ago for weight loss at high doses (˜300 mg) in over 100,000 people, however shown recently in models of neurodegeneration at very low hermetic doses to improve cognition and learning. The pharmacology, which is pleiotropic, appears to provide broad neuroprotection by lowering ROS/mTOR and increasing protective factors such as CAMP, CREB, and BDNF, could be useful for treating hearing loss.

ion channels = assay: inhibition of ion channels
Excerpt: as §3

CYP = assay: inhibition of CYP; format: in vitro ADME
Excerpt: as §3

Caco-2 = assay: Caco-2; format: in vitro ADME
Excerpt: as §3

[2] = pharmacokinetics of DNP in rats; format: in vivo
[3] = at the doses proposed
Protocol: The hypothesis that mitigating mitochondrial dysfunction via scavenging ROS prevents chromatin changes that promote treatment resistance is tested using DNP, a compound in development with uncoupling activity already in Phase I trials for Huntington's Disease. DNP works largely by reducing the mitochondrial electrochemical potential reducing the output of ROS.

[4] = treatment 3-hours post-ischemia; cited from earlier work
wildtype mice = conditions: chronic, extraordinarily low dose; cited from earlier work
[5] = system: models of neurodegeneration; conditions: very low hermetic doses; cited from earlier work
[6] = system: PY230 murine mammary tumor cells; assay: proliferation of PY230 cells under doxorubicin; format: cell-based; conditions: DXR 250 nM, within a few hours from application
Protocol: (§4) FIGS. 2A-2B show heightened levels of nuclear ROS in persister chemotherapy-resistance cancer cells. FIG. 2A is a collection of images and graphs showing experimental data generated using NLS-Orp1roGFP2 biosensor to measure ROS in the nucleus of breast cancer cell lines. PY230 murine mammary tumor cells expressing NLS-Orp1roGFP2 were treated with doxorubicin (DXR, 250 nM) for the indicated amounts of times in plots of proliferation as well as fluorescence ratios indicate that persister cells have high levels of nuclear ROS and proliferate in the presence of chemotherapy mimicking clinical chemotherapy resistance where most cells initially die leaving persister ones that rapidly proliferate unabated by treatment. Induction of NLS-catalase, that removes ROS from the nucleus, resensitized persister cells to the killing effects of DXR. FIG. 2B is a collection of images showing mammary xenografts of luciferase-labeled transformed MCF10A constitutively expressing NLS-catalase under an inducible promoter rapidly grow and metastasize within 3 months of implantation. […]
Nuclear ROS are sufficient and required to activate EMT and metastasis of breast cancer cells. ROS levels were measured in the nuclei of different breast cancer cell lines displaying vastly different tumorigenicity and metastatic potential using novel NLS-Orp1roGFP2 biosensors. […]

[7] = system: v-Src transformed luciferase-expressing MCF10A xenografts; assay: mammary xenograft of v-Src transformed luciferase-expressing MCF10A; format: in vivo, NOD/SCID mice; conditions: doxorubicin combined with NLS-catalase, 2 months of combined therapies, assessed at month 7
Protocol: as §4, with “DXR.” for “DXR. FIG. 2B is a collection of images showing mammary xenografts of luciferase-labeled transformed MCF10A constitutively expressing NLS-catalase under an inducible promoter rapidly grow and metastasize within 3 months of implantation.”
Results in FIG. 2A, closely recapitulate the reality of most clinical cancer treatments that are effective at first eliminating the bulk tumor but that are become ineffective when the disease recur. […] Three months after implantation, metastases were clearly detected by luciferin-induced bioluminescence in the chest and head of most mice FIG. 2B. […]

CC(=O)O[C@@]12CO[C@@H]1C[C@H](O)[C@@]1(C)C(=O)[C@H](O)C3=C(C)[C@@H](OC(=O)[C@H](O)[C@@H](NC(=O)OC(C)(C)C)c4ccccc4)C[C@@](O)([C@@H](OC(=O)c4ccccc4)[C@H]21)C3(C)C [Docetaxel]
chromatin folding (structural alterations) (A2780, M248, MES-SA, MX2): increases

CC(=O)O[C@H]1C(=O)[C@@]2(C)[C@H]([C@H](OC(=O)c3ccccc3)[C@]3(O)C[C@H](OC(=O)[C@H](O)[C@@H](NC(=O)c4ccccc4)c4ccccc4)C(C)=C1C3(C)C)[C@]1(OC(C)=O)CO[C@@H]1C[C@@H]2O [Paclitaxel]
chromatin folding (structural alterations) (A2780, M248, MES-SA, MX2): increases

C[C@@H](N)C(=O)O [D-Ala]
EMT markers (MCF10A/NLS-DAO cells): increased

O=[N+]([O-])c1ccc(O)c([N+](=O)[O-])c1 [DNP, 2,4-dinitrophenol]
levels of nuclear ROS (ox/red Orp1roGFP2 ratio) (BT20 NLS Orp roGFP cells): strongly suppresses; also recorded: clear concentration dependence of nROS reduction
levels of nuclear ROS (ox/red Orp1roGFP2 ratio) [1]: strongly suppresses; also recorded: clear concentration dependence of nROS reduction
Safety Index (28-day toxicity studies; 28-day toxicity studies): ≥ 10 ×
toxicity (28-day toxicity studies; 28-day): not toxic
inhibition of ion channels (ion channels): no inhibition
inhibition of CYP (CYP): no inhibition
inhibition, Caco-2 (Caco-2): no inhibition
distribution [2]: good
oral bioavailability [2]: orally bioavailable
half-life ([2]; rat, plasma): ~6 h
safety [3]: safe
reduction of cerebral infarct volume [4]: 40%
lifespan versus untreated mice (wildtype mice): living longer than untreated mice
cognition and learning [5]: improve

C[C@H]1O[C@@H](O[C@H]2[C@@H](O)C[C@H](O[C@H]3[C@@H](O)C[C@H](O[C@H]4CC[C@@]5(C)[C@H](CC[C@@H]6[C@@H]5C[C@@H](O)[C@]5(C)[C@@H](C7=CC(=O)OC7)CC[C@]65O)C4)O[C@@H]3C)O[C@@H]2C)C[C@H](O)[C@@H]1O [digoxin]
chromatin folding (structural alterations) (A2780, M248, MES-SA, MX2): decreases
chromatin heterogeneity, live cell PWS (A2780, M248, MES-SA, MX2; FIG. 5D): reduces

COc1cccc2c1C(=O)c1c(O)c3c(c(O)c1C2=O)C[C@@](O)(C(=O)CO)C[C@@H]3O[C@H]1C[C@H](N)[C@H](O)[C@H](C)O1 [doxorubicin]
effect on cell population (proliferation) [6]: eliminated the bulk of cells
metastatic disease and primary tumor (bioluminescence) [7]: complete remission of metastatic disease as well as significant regression of primary tumor

Source: patent publication US20260108476A1, “2,4 DNP and Prodrugs Thereof for Treatment of Cancer” (priority 2021, published 2026)
